Laboratory results taken from US12673022B2, “Drug delivery system using solution” (Kyoto University, priority 2018, dated 2026).

System: human DMD exon 45 knock-in/mouse Dmd exon 44 knock-out mouse tibialis anterior muscle
Test: Exon skipping efficiency in skeletal muscle (human DMD exon 45)
Type: in vivo
Conditions: Example 7; administration solution 3: 25 mM or 250 mM 6-phospho-D-gluconic acid or N-carbamyl-L-aspartic acid, 158 mM sodium chloride, hEx45 #1 and #23 gRNA/Cas9; 50 μL once, day 7; Dunnett's test; FIG. 11
Protocol: Cas9 protein (120 μg), hDMD Ex45 #1 gRNA (15 μg), hDMD Ex45 #23 gRNA (15 μg) and 10×PBS (25 μL) were mixed and a 500 mM compound stock solution was added, and then, 500 mM compound stock solution was added to the mixture so as to obtain final concentrations: […], […], 300 ng/μL hDMD Ex45 #23 gRNA, 158 mM sodium chloride, 25 mM or 250 mM compound and diluted with UltraPure DNase/RNase-Free Distilled Water up to a liquid volume of 250 μL and incubated at normal temperature for 15 minutes. The Cas9 protein herein was subjected to buffer replacement with 250 mM sodium chloride by use of Amicon® Ultra 2 mL Centrifugal Filters and then put in use […]
To the tibialis anterior muscle of each of 4 weeks-old male human DMD exon 45 knock-in/mouse Dmd exon 44 knock-out mice, administration solution 3 (50 μL) was administered once. […] Subsequently, a product with skipping was quantitatively measured by use of FastStart Universal Probe Master (Roche), the primers represented by SEQ ID Nos. 14 and 15 and the probe of sequence 16. The product without skipping was quantitatively measured by use of FastStart Universal Probe Master (Roche), the primers represented by SEQ ID Nos. 17 and 18 and the probe of sequence 19. Each of the PCR products was measured by use of ViiA7™ real time PCR system. […]

**Q.** How did the “Exon skipping activity (skipping efficiency %) compared to 250 mM GABA” value turn out when `NC(=O)N[C@@H](CC(=O)O)C(=O)O` [N-Carbamyl-L-aspartic acid] was run?
**A.** The value was “statistically significant results compared to 250 mM GABA”.
